Literature values as cited in patent US8734864B2, “Methods for increasing human growth hormone levels” (Quality IP Holdings, LLC, priority 2012, dated 2014).

Legend:
hGH secretion = settings: for Increase in hGH (in words): other amino acids, literature
[1] = subcutaneous injection of 0.06 IU, GH deficient subjects

| Molecule | Increase in hGH (in words) (hGH secretion) | other results |
| --- | --- | --- |
| N=C(N)NCCC[C@H](N)C(=O)O [arginine] | – | Elevation of serum hGH levels (hGH secretion; 30 g, males): 8.6 fold; Increase of hGH levels (hGH secretion; intravenous infusion of 183 mg/kg body weight, females): > 20 fold |
| HGH: human growth hormone given by subcutaneous injection to GH deficient subjects (literature) | – | Mean levels of GH reached [1]: 0.4 ng/mL |
| N[C@@H](Cc1c[nH]cn1)C(=O)O [histidine] | marked increases in hGH | – |
| NCCCC[C@H](N)C(=O)O [lysine] | marked increases in hGH | – |
| N[C@@H](Cc1ccccc1)C(=O)O [phenylalanine] | marked increases in hGH | – |
| NCCC[C@H](N)C(=O)O [ornithine] | marked increases in hGH | – |
| CSCC[C@H](N)C(=O)O [methionine] | marked increases in hGH | – |
